Assays:
Type in all cases: in vivo, mouse
IL-6 and MIP-2 mRNA = test: Real time PCR of proinflammatory cytokine mRNA in colonic tissue, DSS model
Protocol: In the DSS-model proinflammatory cytokines were measured by real time PCR. Total RNA was extracted from DSS treated, DSS+ATL-801 and control colonic tissue using the TRizol reagent. After quantification, a reverse transcription (RT) reaction was performed with 2 μg of each sample and oligo-dT primer, using the SuperScript First strand synthesis system for RT-PCR (Invitrogen, CA). The real-time iCycler sequence detection system (Bio-Rad) was used for the real-time RT-PCR. […] The 36B4 expression levels were used as reference, and fold-induction was calculated using a standard curve. For graphical representation of quantitative PCR data, raw cycle threshold values (Ct values) obtained for treated mice were deducted from the Ct value obtained for internal 36B4 transcript levels, using the Ct method as follows: ΔΔCT=(Ct Target−Ct 36B4)treatment−(Ct Target−Ct 36B4) no treatment, and the final data were derived from 2^−ΔΔCT. […] In IL-10−/− model proinflammatory cytokines were measured by ELISA in organ cultures. […] Supernatants were harvested after 24 hours, centrifuged and stored at −80° C. before IL-6 and keratinocyte derived chemokine, KC levels were measured by ELISA. […] IL-8 was measured in the supernatants by ELISA.

[1] = test system: IL-10-/- mice with piroxicam induced colitis; test: Piroxicam induced colitis in IL-10-/- mice: body weight, histological score, colon length
Excerpt: IL-10^−/− mice spontaneously develop a chronic, T-cell mediated, transmural colitis that shares many features with human Crohn's disease. Based on this model, there have been several clinical trials using IL-10 treatment for IBD in human patients 13 However, due to the inconsistency in the development of spontaneous colitis in IL-10^−/− mice, Berg and his colleagues have described rapid development of colitis in IL-10^−/− mice treated with a nonsteroidal anti-inflammatory drug piroxicam (NSAID)^9. Accordingly, mice were treated with piroxicam, 200 mg/kg diet, for two weeks to induce colitis. Mice were administered ATL-801 for a week prior to treatment with piroxicam, and ATL-801 treatment was continued during piroxicam administration. Two weeks after the induction of colitis, mice were euthanized, and colonic tissue was analyzed.
Assessment of body weights, stool consistency, and the presence of occult/gross blood by a guaic test (Hemoccult Sensa; Beckman Coulter, Fullerton, Calif.) were performed daily for each mouse. Colitis was quantified with a clinical and histological score, as described by Cooper, et. al. Clinical score was based on weight loss, stool consistency, and fecal blood (score range 0-12). Histological scoring was performed based on three variables, extent of inflammatory infiltrate, mucosal ulcers and severity of crypt (score range 0-11). IL-10^−/− mouse colon histological scoring (ranging from 0 to 4) was performed as described by Berg, et. al. to assess intestinal lesions and their severity.

A2b receptor expression = test: Western blot of A2b receptor in colonic lysates, DSS model; settings: baseline and after DSS treatment
Excerpt: Colonic tissue was homogenized and cell lysates were subjected to immunoblotting using anti-A2b receptor antibody (1:1000). β-tubulin was used as loading control. Blot shown is representative of 4 animals per condition.

[2] = test system: myeloperoxidase (MPO) activity, neutrophil infiltration into colon; test: Myeloperoxidase assay in colon, DSS colitis; settings: DSS 3% 6 days, ATL-801 10 mg/kg in diet
Protocol: Neutrophil infiltration into colon was quantified by measuring myeloperoxidase (MPO) activity as described previously. One unit of MPO activity was defined as the amount that degraded 1 μmol of […] per minute at 25° C. The results were expressed as absorbance per μg of protein.

[3] = test system: colonic crypt epithelial cells; test: ki67 proliferation and caspase-3/TUNEL apoptosis staining of colonic crypts, DSS colitis
Protocol: Apoptosis: Apoptotic cells were determined in colonic crypts of the mice that received ATL-801. Apoptotic cells were identified by fluorescent double staining using caspase-3 and terminal deoxyuridine nick-end labeling (TUNEL) as a secondary method to detect apoptosis. After deparaffinization and hydration, paraffin sections of colon were retrieved for antigens in a pressure cooker with sodium citrate (pH 6.0, 10 mM) for 10 min. After cooling, the sections were quenched in 3% H2O2 in methanol and then blocked with normal goat serum. Caspase-3 was detected with rabbit anti-cleaved-caspase-3 IgG overnight at 4° C. followed by a labeled streptavidin-biotin (LSAB) staining method consisting of successive application of secondary antibody-streptavidin, biotin-horseradish peroxidase, and cyanine-3 tyramide. TUNEL immunohistochemistry was performed using the in situ cell death detection kit, fluorescein, as described by the manufacturer (Roche Applied Science, Indianapolis, Ind.). For IL-10 model, frozen sections were used to stain cleaved caspase 3 and TUNEL. Nuclei were attained by Hoechst to count total crypt cell number. The apoptotic index for both morphologically defined apoptotic cells and fluorescent staining with caspase-3 was calculated as the number of apoptotic cells per crypt. […]

For `CCCn1c(=O)n(C2CC2)c(=O)c2[nH]c(-c3ccc(N(CC)C(=O)c4cccnc4)nc3)nc21` [ATL-801], the “IL-6 mRNA in colonic mucosal tissue” value (IL-6 and MIP-2 mRNA; DSS + antagonist, normalized to 36B4, DSS 7.2±1.7) was 1.8±0.7 fold increase compared to untreated, the “MIP-2 mRNA levels” value (IL-6 and MIP-2 mRNA; DSS+ATL-801, fold increase over control (FIG. 5B), DSS 28.1±3.8) was 13.62±3.0 and the “histology, ATL-801 alone” value ([1]; IL-10-/- mice treated with ATL-801 alone (data not shown)) was “normal histology”. The colon length ([1]; IL-10-/- mice, ATL-801+piroxicam, piroxicam 7.0±0.25 cm) was 8.4±0.23 cm, the mean histological score ([1]; IL-10-/- mice, piroxicam + ATL-801, score 0 to 4, piroxicam 2.8±1.0) was 1.3±0.3 and the “body weight change (Δ)” value ([1]; IL-10-/- mice, piroxicam+ATL-801 10 mg/Kg diet, FIG. 8A percent body weight change, piroxicam Δ−2.05±0.7) was “+0.2±0.5”. The “effect on A2b receptor expression (Western blot)” value (A2b receptor expression) was “affected neither baseline level of A2b receptor nor DSS-induced increase in A2b receptor expression”, the “MPO activity, DSS alone relative to antagonist and DSS” value [2] was 5 fold and the “proliferation index, ki67 positive cells” value ([3]; DSS+ATL, average positive cells per crypt, control 18.67±1.62, DSS 5.95±0.31) was 15.13±0.44. For the same compound, the “TUNEL positive cells out of total number of cells counted in each crypt” value ([3]; DSS+ATL-801, DSS 16.3±2.3) was 3.7±0.7.

Source: patent US8193200B2, “Antagonists of A2B adenosine receptors for treatment of inflammatory bowel disease” (University of Virginia Patent Foundation, priority 2007, dated 2012)
